In assay [1] the test system is HL-7702 normal liver cells. The assay is described as follows: CCK8 cell viability assay. It counts as cell-based, human. The settings on record: Homo sapiens, L02; HL-7702, 48 h, individual treatment; read-out: IC50 (half maximal inhibitory concentration). Here is the method:
(§1) Cell viability assay using the CCK8 reagent (Bimake, Shanghai, China) was conducted according to the manufacturer’s instructions. The cell proliferation data were used to calculate the cell viability. Briefly, HepG2, SMMC-7721, and HL-7702 cells with a density of 5 × 10^3 cells/well were seeded into each well of 96-well plates and incubated overnight. […] After 48 h, 10 µL of CCK8 reagent was added to each well, followed by 2 h incubation at 37°C and measurement of absorbance at 450 nm using a microplate reader (Molecular Devices, LLC.). […] The effects of the combinatorial inhibition were visualized by isobologram analyses ([Tallarida, 2001]). […] A line was drawn to link the two IC50 points. […] The dots above, on, or below the line indicate the “antagonistic,” “additive” and “synergistic” effects, respectively. The same method was used to obtain the CI value for the cotreatment of BCP and DDP.
In general terms: Tetrazolium assays rely on reduction of a dye to a coloured formazan, in cell work by metabolically active cells.

The test system of assay [2] is HepG2 cells. The assay can be described thus: CCK8 cell viability assay. The format is cell-based, human. The settings on record: Homo sapiens; HepG2, 48 h, individual treatment; read-out: IC50 (half maximal inhibitory concentration). Here is the method:
as §1

Assay [3] deals with SMMC-7721 cells. The assay is described as follows: CCK8 cell viability assay. The format is cell-based, human. The settings on record: Homo sapiens; SMMC-7721, 48 h, individual treatment; read-out: IC50 (half maximal inhibitory concentration). Here is the method:
as §1

Assay [4] concerns SMMC-7721 cells. The assay can be described thus: Transwell migration assay. It counts as cell-based, human. To be noted: 48 h, vs ethanol control. Here is the method: (§2) The transwell migration and invasion experiments were conducted using a 24-well plate (cat# 3422, Corning). HepG2 and SMMC-7721 cells (5 × 10^4) were suspended in 100 µL of medium supplied with ethanol, 150 and 300 µM of BCP and added to the top chamber, while 600 µL of complete medium containing 10% FBS was added into the lower chamber. After 48 h of incubation at 37°C, the cells from the top chamber were carefully removed using a cotton swab, while the cells penetrated through the membrane were fixed using 600 µL of 70% methanol for 15 min. To stain the cells, 600 µL of 0.2% crystal violet was used to treat the Transwell inserts for 10 min, followed by washing and drying, and the membranes of the inserts were photographed using an inverted microscope (Leica DM13000 B). The positive staining area was calculated using ImageJ software.

Assay [5] deals with HepG2 cells. The assay is described as follows: Matrigel transwell invasion assay. The format is cell-based, human. The settings on record: 48 h, vs control. Here is the method: as §2
(§3) For invasion assay, Matrigel (Corning, cat# 356234) was used to precoat the top chamber. Cells (8 × 10^4) were added to the top chamber and the following procedure was the same as the migration assay described above.

Assay [6] deals with SMMC-7721 cells. The assay is described as follows: Matrigel transwell invasion assay. The format is cell-based, human. The settings on record: 48 h, vs control. Here is the method:
as §2, §3

Assay [7] relates to HepG2 cells. The assay is described as follows: CCK8 viability of cells infected by pSL4-Flag vector or pSL4-Flag-PGF lentivirus. The format is cell-based. To be noted: Homo sapiens, HepG2, 48 h. Here is the method: (§4) Cell viability assay using the CCK8 reagent (Bimake, Shanghai, China) was conducted according to the manufacturer’s instructions. The cell proliferation data were used to calculate the cell viability. Briefly, HepG2, SMMC-7721, and HL-7702 cells with a density of 5 × 10^3 cells/well were seeded into each well of 96-well plates and incubated overnight. […] After 48 h, 10 µL of CCK8 reagent was added to each well, followed by 2 h incubation at 37°C and measurement of absorbance at 450 nm using a microplate reader (Molecular Devices, LLC.). The cell viability percentage of all compounds or their combinations at certain concentrations during the treatment period was evaluated by normalizing absorbance at 450 nm to that of vehicle controls. The half maximal inhibitory concentrations (IC50) values were calculated using the GraphPad Prism 8 software.
(§5) The placental growth factor (PGF) coding sequence was amplified using gene specific primers and then subcloned into a lentiviral vector pSL4-Flag expressing the puromycin resistance gene to generate pSL4-Flag-PGF vector with a CMV promoter driving PGF expression. The primers used to amplify the PGF coding sequence, check the amplified DNA fragment and verify its ectopic expression are listed in Supplementary Table S1. Lentiviruses carrying pSL4-Flag-PGF and an empty pSL4-Flag vector were produced and used to infect HCC cells based on our previously reported procedure ([Wan et al., 2012]). Ectopic PGF expression was achieved by infecting HCC cells with pSL4-Flag-PGF lentivirus, and the control cells were produced by infecting HCC cells using lentivirus carrying the empty pSL4-Flag-vector.

Assay [8] deals with SMMC-7721 cells. The assay is described as above. The format is cell-based. The settings on record: Homo sapiens. Here is the method:
as §4, §5

Molecules are shown by their SMILES.

On to `C=C1CC/C=C(\C)CC[C@@H]2[C@@H]1CC2(C)C` [BCP, β-caryophyllene], for which the IC50 in assay [1] was 610.9 ± 2.72 µM; in the assay on HepG2 cells [2], 194 ± 3.2 µM; in the assay on SMMC-7721 cells [3], 334.5 ± 2.96 µM; in the assay with HepG2 cells [7] (HepG2 cells carrying empty vector), 178 µM; with HepG2 cells [7] (HepG2 cells expressing Flag-PGF), 284 µM; in the assay with SMMC-7721 cells [8] (SMMC-7721, SMMC-7721 cells carrying empty vector), 318 µM. For the same compound, in the assay on SMMC-7721 cells [8] (SMMC-7721, SMMC-7721 cells expressing Flag-PGF), the IC50 came out at 405 µM. Besides, the “reduction of cell migration” value is 18.06% with SMMC-7721 cells [4] (SMMC-7721, 150 µM) and 52.19% in the assay on SMMC-7721 cells [4] (SMMC-7721, 300 µM). In addition, the “decrease of Matrigel infiltration (invasion)” value in the assay on HepG2 cells [5] (HepG2, 150 µM) is given as 46.3%; in the assay with HepG2 cells [5] (HepG2, 300 µM), 70.03%; in the assay with SMMC-7721 cells [6] (SMMC-7721, 150 µM), 17.67%; with SMMC-7721 cells [6] (SMMC-7721, 300 µM), 49.64%.

(Values after publication PMC11671526, “β-caryophyllene sensitizes hepatocellular carcinoma cells to chemotherapeutics and inhibits cell malignancy through targeting MAPK signaling pathway” (Frontiers in Pharmacology, 2024).)
